In ChEMBL document CHEMBL3045742, “Antioxidant, cytotoxicity, and QSAR study of 1-adamantylthio derivatives of 3-picoline and phenylpyridines” (Med Chem Res, 2012):
Values after ≈ are worked out from the molar mass of the structure shown.

How the values were obtained:
HepG2 = assay: Cytotoxicity against Homo sapiens (human) HepG2 cells after 3 days by MTT assay; assay type: functional, cell-based
[1] = Antioxidant activity assessed as superoxide radical scavenging activity at 300 ug/mL by NBT reduction assay; assay type: functional
[2] = Cytotoxicity against Homo sapiens (human) HuCCa1 cells after 3 days by crystal violet staining; assay type: functional, cell-based, HuCC-A1
MOLT-3 = assay: Cytotoxicity against Homo sapiens (human) MOLT3 cells after 3 days by crystal violet staining; assay type: functional, cell-based; details: MOLT-3, 72 h
[3] = test system: Radical scavenging activity; assay: Antioxidant activity assessed as DPPH radical scavenging activity at 300 ug/mL after 30 min; assay type: functional
A549 = assay: Cytotoxicity against Homo sapiens (human) A549 cells after 3 days by MTT assay; assay type: functional, cell-based
[4] = Homo sapiens, HepG2, 72 h, read-out: IC50
[5] = Homo sapiens, HuCC-A1, 72 h, read-out: IC50
[6] = Homo sapiens, A549, 72 h, read-out: IC50

SMILES	IC50 (HepG2; hepg2)	Activity [1] [%]	IC50 ([2]; hucc-a1)	IC50 (MOLT-3) [µg/mL]	Activity [3] [%]	IC50 (A549; a549)	IC50 (HepG2; [4]) [µg/mL]	IC50 [2, 5] [µg/mL]	IC50 (A549; [6]) [µg/mL]
Cc1ccc(SC23CC4CC(CC(C4)C2)C3)nc1 [6-(1-ADAMANTYLTHIO)-3-PICOLINE]	Not Active	28.6	Not Active	27.2 (≈ 105 µM)	7.69	Not Active			
COc1cccc2c1C(=O)c1c(O)c3c(c(O)c1C2=O)C[C@@](O)(C(=O)CO)C[C@@H]3O[C@H]1C[C@H](N)[C@H](O)[C@H](C)O1 [DOXORUBICIN]							0.23 (≈ 0.423 µM)	0.45 (≈ 0.828 µM)	0.39 (≈ 0.718 µM)
c1ccc(-c2cccc(SC34CC5CC(CC(C5)C3)C4)n2)cc1 [6-(1-ADAMANTYLTHIO)-2-PHENYLPYRIDINE]		25.9	Not Active	32.2 (≈ 100 µM)	7.37		48.5 (≈ 151 µM)		44 (≈ 137 µM)
c1ccc(-c2ccnc(SC34CC5CC(CC(C5)C3)C4)c2)cc1		32	Not Active	31.1 (≈ 96.7 µM)	6.95	Not Active	46.5 (≈ 145 µM)		
c1ccc(-c2ccc(SC34CC5CC(CC(C5)C3)C4)cn2)cc1		31.6			8.77				
c1ccc(-c2cc(SC34CC5CC(CC(C5)C3)C4)ccn2)cc1 [4-(1-ADAMANTYLTHIO)-2-PHENYLPYRIDINE]	Not Active	32.1		28.6 (≈ 88.8 µM)	30.2			49 (≈ 152 µM)	38 (≈ 118 µM)
c1ccc(-c2ccncc2SC23CC4CC(CC(C4)C2)C3)cc1 [3-(1-ADAMANTYLTHIO)-4-PHENYLPYRIDINE]		37.5		8.02 (≈ 24.9 µM)	12.2		21.5 (≈ 66.9 µM)	29 (≈ 90.2 µM)	24 (≈ 74.7 µM)
Cc1cncc(SC23CC4CC(CC(C4)C2)C3)c1 [5-(1-ADAMANTYLTHIO)-3-PICOLINE]		36.9		15.8 (≈ 61.1 µM)	7.96		26.5 (≈ 102 µM)	34 (≈ 131 µM)	29 (≈ 112 µM)
Cc1cccnc1SC12CC3CC(CC(C3)C1)C2		10.8	Not Active	33.3 (≈ 128 µM)	19.6	Not Active	30 (≈ 116 µM)		
c1ccc(-c2cccnc2SC23CC4CC(CC(C4)C2)C3)cc1		26.7			11.1				
COc1cc([C@@H]2c3cc4c(cc3[C@@H](O[C@@H]3O[C@@H]5CO[C@@H](C)O[C@H]5[C@H](O)[C@H]3O)[C@H]3COC(=O)[C@H]23)OCO4)cc(OC)c1O [ETOPOSIDE]				0.019 (≈ 0.0323 µM)			12 (≈ 20.4 µM)		
c1ccc(-c2ccc(SC34CC5CC(CC(C5)C3)C4)nc2)cc1 [6-(1-ADAMANTYLTHIO)-3-PHENYLPYRIDINE]	Not Active	18	Not Active	32.5 (≈ 101 µM)	10.6				44 (≈ 137 µM)
